This is an account of results in PMC8074792, “An ω-3, but Not an ω-6 Polyunsaturated Fatty Acid Decreases Membrane Dipole Potential and Stimulates Endo-Lysosomal Escape of Penetratin” (Frontiers in Cell and Developmental Biology, 2021).

What all share (assay type): cell-based, human
Test [1] has as its system JY cells. The experiment in a line: Membrane dipole potential, F66 emission ratio, flow cytometry. Particulars: 50 μM fatty acid 48 h, then 50 or 200 μM cholesterol 1 h, n = 5. On the procedure: (§1) The human acute monocytic leukemia-derived cell line THP-1 and the human Epstein-Barr virus (EBV) transformed lymphoblastoid cell line JY were obtained from the American Type Culture Collection (Manassas, VA, United States) and cultivated according to their specifications. […] As controls, cells were treated with the corresponding amounts of native MβCD complexes not containing sterols. To study the effects of fatty acids, cells were incubated for 48 h in medium supplemented with saturated stearic acid (SA, Sigma Aldrich), ω-3 polyunsaturated α-linolenic acid (ALA, Sigma Aldrich) or ω-6 polyunsaturated γ-linolenic acid (GLA, Sigma Aldrich) at various concentrations ranging from 12.5 to 50 μM. […] After washing, the fluorescence intensities of cells were determined with a FACS Aria III flow cytometer (Becton Dickinson, Mountain View, CA, United States) at 37°C. […] Data analysis was carried out in FCS Express (De Novo Software, Los Angeles, CA, United States). The ratio of emitted intensities in the two wavelength ranges (N^∗/T^∗) was determined for each cell and the average value was calculated for each sample from the data of living cells gated on FSC-SSC dot plots. The value of N^∗/T^∗ ratio negatively correlates with the magnitude of DP ([Kovacs et al., 2017]).

The test system of test [2] is THP-1 cells. Described as above. The note with it: n = 5; for effect of fatty acid pretreatment on cholesterol-induced DP elevation (Rem, F66): 50 μM fatty acid 48 h, then 50 or 200 μM cholesterol 1 h; for Rem, F66: fatty acid 12.5-50 μM for 48 h. On the procedure: as §1
The subject of test [3] is JY cells. The test can be described thus: Membrane fluidity, TMA-DPH fluorescence anisotropy. Particulars: 200 μM sterol 1 h or 50 μM fatty acid 48 h, 37°C, n = 6, vs control. Here is the method: (§2) 4′-(trimethylammonio)-diphenylhexatriene (TMA-DPH) was purchased from Sigma-Aldrich, dissolved in tetrahydrofuran and used for determination of membrane fluidity as described previously ([Batta et al., 2018]). […] Fluorescence intensities were measured without washing using a Fluorolog-3 spectrofluorometer (Horiba Jobin Yvon, Edison, NJ, United States) with the temperature of the cuvette holder adjusted to 37°C by a circulating water bath. The fluorescence anisotropy (r) of TMA-DPH was determined in the L-format after excitation at 352 nm and measurement of fluorescence intensities at 430 nm according to the formula: […]
For orientation: Polarisation of emitted light reports the rotation of a fluorescent probe.

In test [4] the test system is THP-1 cells. The experiment in a line: Membrane fluidity, TMA-DPH fluorescence anisotropy. Particulars: 200 μM sterol 1 h or 50 μM fatty acid 48 h, 37°C, n = 6, vs control. On the procedure: as §2

Regarding `CC/C=C\C/C=C\C/C=C\CCCCCCCC(=O)O` [ALA, α-linolenic acid], the “effect of fatty acid pretreatment on cholesterol-induced DP elevation (Rem, F66)” value in the test on JY cells [1] and with THP-1 cells [2] was “significantly decreased the DP-elevating effect of cholesterol” each time. Moreover, the “Rem, F66” value with THP-1 cells [2] was “dose-dependently and significantly increased”. Also, the “TMA-DPH fluorescence anisotropy (inversely correlates with membrane fluidity)” value in the test with JY cells [3] and in the test on THP-1 cells [4] was “significantly decreased” in each case.
In the case of `CCCCC/C=C\C/C=C\C/C=C\CCCCC(=O)O` [GLA, γ-linolenic acid], the “effect of fatty acid pretreatment on cholesterol-induced DP elevation (Rem, F66)” value in the test with JY cells [1] and in the test with THP-1 cells [2] was “a tendency to augment the cholesterol-induced DP changes” each time. The “Rem, F66” value in the test with THP-1 cells [2] was “opposite changes”. Also, the “TMA-DPH fluorescence anisotropy (inversely correlates with membrane fluidity)” value in the test with JY cells [3] and in the test with THP-1 cells [4] was “did not reach statistical significance” each time.
